Assay results published in publication PMC6421539, “Discovery of Soft-Drug Topical Tool Modulators of Sphingosine-1-phosphate Receptor 1 (S1PR1)” (ACS Medicinal Chemistry Letters, 2019).
Entries after “also recorded” stand apart in the source; their conditions may differ. Where two headings read alike, the source gives them in different places. Blank lines part the entries; values can stand above or below the molecule they belong to.

Experiments:
[1] = Chemical stability in DMSO solution; assay type: physicochemical; conditions: for isomerization / hydrolysis / chemical instability in DMSO solution (in words): 28 days; for stability (% decrease): Table 3, % loss in purity when stored in DMSO solution for 28 days; for stability (% decrease) / stability (% decrease in purity): n = 1; for stability (% decrease in purity): Table 2, stored in DMSO solution for 28 days
Description: Although several compounds shown in Table 2 satisfy the rapid clearance requirements of a soft drug and retain primary activity, none were suitable for progression into in vivo studies due to chemical stability liabilities. […] The instability in solution represented a major development hurdle as topical drugs are usually stored in solution or suspensions (cream, ointment, paste, lotion, or gels), rather than in solid form, as is the case for oral drugs. We turned our attention to identifying the impurity and preventing its formation.
Decomposition studies used ^1H NMR to monitor the increase in the acetic acid methyl group peak over 28 days (see Supporting Information). […] However, the chemical stability was poor when heteroatoms were alpha to the carbonyl of the acetate group 10d,e, and these compound degraded on standing within 24 h, preventing full characterization.

[2] = Topical pharmacokinetic experiment in mice; assay type: in vivo; conditions: for Mean concentration in blood: female Balb/c mice, topical 10a 1% w/v, n=3, LLoQ = 1 ng/mL, scaled LLoQ 10 ng/mL; for concentration at 2 h / concentration at 8 h: female, Balb/c, mouse, 22.5 µL of 1% w/v 10a; for concentration at 2 h / concentration at 8 h / concentration in blood: mice, topical 22.5 μL of 1% 10a in propylene glycol/ethanol 7/3
[3] = Glutathione trapping experiment in human liver microsomes; assay type: in vitro ADME; conditions: 10 µM, 90 minutes
Procedure: Concentration (ng/mL) Scaled concentration (ng/mL) Mean concentration […]
Mouse 1 Mouse 2 Mouse 3 Mouse 1 Mouse 2 Mouse 3
2h-post application < LLoQ < LLoQ < LLoQ < LLoQ < LLoQ < LLoQ < LLoQ […]
Mouse 4 Mouse 5 Mouse 6 Mouse 4 Mouse 5 Mouse 6
8h-post application < LLoQ < LLoQ < LLoQ < LLoQ < LLoQ < LLoQ < LLoQ […]
Scaled LLoQ = dilution factor * LLoQ = 10*1 = 10 ng/mL
Skin concentrations for 10a
Test compound (10 µM) was incubated with 0.5 mg/mL human liver microsomes (Mixed Gender, Life Technologies) in 50 mM potassium phosphate buffer, pH 7.4 in the presence of either NADPH (8mg/mL) alone, glutathione alone or NADPH plus glutathione. Reactions are initiated by addition of 5 µL of 1 mM test compound (final concentration 10 µM, 1% solvent). Immediately, an aliquot (100 µL) of the incubation mixture was removed and mixed with acetonitrile (200 µL) to stop the reaction. A further 100 µL aliquot is removed at 90 minutes. After addition of 100 µL of water, the samples were centrifuged to sediment precipitated protein and the plates then sealed prior to analysis using a Xevo QTof Quadrupole Time-of-Flight Mass Spectrometer (Waters corporation, USA). Detection of metabolites is performed by analysis with MetabolynxXS and by manual data
(1 picture or pasted object on this page, not shown here)

[4] = Metabolite identification in human skin S9 fraction; assay type: in vitro ADME; conditions: incubation with human skin S9 fraction; n = 1
Description: (§1) Based on the stability of (Z,Z)-9k in DMSO over 28 days (Table 2), it is likely this hydrolysis is enzymatically driven. We then performed metabolite identification studies using (Z,Z)-9k in human hepatocytes to confirm the routes of clearance of our S1PR1 modulators.

[5] = CHI logD by reverse-phase HPLC; assay type: physicochemical; conditions: compared to 4a
[6] = Human liver hepatocyte stability, intrinsic clearance; assay type: in vitro ADME
Procedure: the exponential decay and consequently the rate constant (k) from the ratio of peak area of test compound to internal standard at each timepoint. The rate of intrinsic clearance (CLi) of each test compound was then calculated using the following calculation:
CLi (mL/min/g liver) = k x V x Microsomal protein yield
Where V (mL/mg protein) is the incubation volume/mg protein added and microsomal protein yield is taken as 52.5 mg protein per g liver. Verapamil (0.5 μM) was used as a positive control to confirm acceptable assay performance. Experiments were performed using a single timecourse experiment.
All values reported correspond to n of 1.
Human Liver Hepatocyte (HLH) stability experiments
Cryopreserved vials of human cryopreserved hepatocytes, supplied by Life Technologies, were thawed according to manufacturer’s instructions and cells resuspended in Williams Medium E (WME) containing cell maintenance supplement pack (CM4000, Life Technologies). Hepatocytes were incubated in suspension (0.5 million cells/mL) in 48 well non-collagen coated cell culture plates for 10 minutes at 37 °C, 5% CO 2. […] The response (area ratio of test compound to internal standard) was plotted against time using an exponential decay model and rate of disappearance calculated. […]
The half life (T½) of each test compound was determined using the following equation: […]

[7] = NMR study of isomerisation after incubation in DMSO-d6 for 6 months; assay type: physicochemical; conditions: 1H NMR integration
Description: The NOESY spectrum of the mixture indicated no changes in the arrangement of the imine (no correlation was observed between H^11–H^19 or H^11′–H^19′).

[8] = Metabolite identification in human hepatocytes; assay type: in vitro ADME; conditions: n = 1
Description: as §1

[9] = parameters: method as in PMID 20089952; conditions: 0.5 mg/day; cited from earlier work

stability (% decrease) [1]: 0%
Mean concentration in blood ([2]; 2h-post application): < LLoQ
Mean concentration in blood ([2]; 8h-post application): < LLoQ
concentration at 2 h ([2]; whole blood, 2 h, read-out: concentrations in blood): 8.8 µM
concentration at 8 h ([2]; whole blood, 8 h, read-out: concentrations in blood): 4.9 µM
concentration in blood ([2]; 2 h): LLoQ
concentration in blood ([2]; 8 h): LLoQ
SMILES: CCC/N=C1\S/C(=C\c2ccc(OC(C)=O)c(C)c2)C(=O)N1c1ccccc1C [Compound 10a]
isomerization / hydrolysis / chemical instability in DMSO solution (in words) [1]: did not isomerize; also recorded: no hydrolysis or isomerization
glutathione adducts or derivatives [3]: no evidence of glutathione adducts or derivatives was observed
metabolites identified [4]: expected phenol (Z,Z)-9k was obtained after hydrolysis of the ester group: no other metabolites were observed

stability (% decrease) [1]: 1.4%
SMILES: CCC/N=C1\S/C(=C\c2ccc(OC(C)=O)c(C(F)(F)F)c2)C(=O)N1c1ccccc1C [Compound 10c]

isomerization / hydrolysis / chemical instability in DMSO solution (in words) [1]: instability was not an issue
SMILES: CCC/N=C1\S/C(=C\c2ccc(OC(=O)CCOC)c(C)c2)C(=O)N1c1ccccc1C [Compound 10g]

stability (% decrease) [1]: 0%
SMILES: CCC/N=C1\S/C(=C\c2ccc(OC[C@H](O)CO)c(Cl)c2)C(=O)N1c1ccccc1C [ponesimod, reference compound]

stability (% decrease) [1]: 6.3%
SMILES: CCC/N=C1\S/C(=C\c2ccc(OC(C)=O)c(Br)c2)C(=O)N1c1ccccc1C [Compound 10b]

stability (% decrease) [1]: 0%
SMILES: CCC/N=C1\S/C(=C\c2ccc(OC(=O)CCO)c(C)c2)C(=O)N1c1ccccc1C [Compound 10f]
isomerization / hydrolysis / chemical instability in DMSO solution (in words) [1]: did not isomerize; also recorded: instability was not an issue

time within which compound degraded on standing ([1]; heteroatom alpha to the carbonyl of the acetate group): ≤ 24 h
SMILES: CCC/N=C1\S/C(=C\c2ccc(OC(=O)COC)c(C)c2)C(=O)N1c1ccccc1C [Compound 10d]

stability (% decrease in purity) [1]: 3%
SMILES: CCC/N=C1\S/C(=C\c2ccc(O)c(C(C)C)c2)C(=O)N1c1ccccc1C [Compound 9l]

More lines, now with the values behind:

SMILES: CCC/N=C1\S/C(=C\c2ccc(O)c(C(F)(F)F)c2)C(=O)N1c1ccccc1C [Compound 9g]
stability (% decrease in purity) [1]: 10%

SMILES: CCC/N=C1\S/C(=C\c2ccc(O)c(Cl)c2)C(=O)N1C1CCN(C)C(=O)C1 (stereo not drawn) [Compound 4f]
reduction in CHIlogD [5]: 3 log units

SMILES: CCC/N=C1\S/C(=C\c2ccc(O)cn2)C(=O)N1c1ccccc1C [Compound 9i]
stability (% decrease in purity) [1]: 4%

SMILES: CCC/N=C1\S/C(=C\c2ccc(O)c(C#N)c2)C(=O)N1c1ccccc1C [Compound 9h]
H Heps Cl (intrinsic clearance in human liver hepatocytes) ([6]; 0.5 μM test compound, n = 1): <0.5 mL/min/g
stability (% decrease in purity) [1]: 20%
impurity (E isomer) share of the mixture [7]: 32%

SMILES: CCC/N=C1\S/C(=C\c2ccc(O)c(C)c2)C(=O)N1c1ccccc1C [Compound 9k]
hepatic clearance as % liver blood flow ([6]; corresponds to intrinsic clearance 31 mL/min/g, if good in vitro to in vivo correlation): 97 % liver blood flow
stability (% decrease in purity) [1]: 3%
Mean concentration in blood ([2]; 2h-post application): < LLoQ
Mean concentration in blood ([2]; 8h-post application): < LLoQ
concentration at 2 h ([2]; skin, 2 h, read-out: concentration in the skin): 134 µM
concentration at 8 h ([2]; skin, 8 h, read-out: concentration in the skin): 101 µM
concentration in blood ([2]; 2 h): LLoQ
concentration in blood ([2]; 8 h): LLoQ
metabolites identified [8]: glucuronide conjugation product, hydroxylation products, and hydroxylation with sulfation metabolites

SMILES: CCC/N=C1\S/C(=C\c2ccc(O)c(Br)c2)C(=O)N1c1ccccc1C [Compound 9f]
stability (% decrease in purity) [1]: 16%

SMILES: CCCCCCCCc1ccc(CCC(N)(CO)CO)cc1 [fingolimod]
steady state systemic concentration Cmax [9]: 3.1 ng/mL

SMILES: CCC/N=C1\S/C(=C\c2ccc(O)cc2)C(=O)N1c1ccccc1C [Compound 9j]
isomerization / hydrolysis / chemical instability in DMSO solution (in words) [1]: stable over a 28-day period
stability (% decrease in purity) [1]: 0%

SMILES: CCC/N=C1\S/C(=C\c2ccc(O)c(Cl)c2)C(=O)N1c1ccccc1O [Compound 4h]
reduction in CHIlogD [5]: 1.1 log units

SMILES: CCC/N=C1\S/C(=C\c2ccc(O)c(Cl)c2)C(=O)N1c1ccccc1C [Compound 4a]
stability (% decrease in purity) [1]: 6%
